In patent US20240122180A1, “FUNGICIDAL HALOMETHYL KETONES AND HYDRATES AND THEIR MIXTURES” (FMC Corporation, priority 2020, published 2024):
Marks after values point to notes of the source that are not given here.

Experiments:
Type in all cases: in vivo
[1] = tested on: Puccinia recondita f. sp. tritici (the causal agent of wheat leaf rust); experiment: Test B: preventive spray on wheat seedlings, disease rating (100 = 100% control; * 50 ppm, ** 10 ppm, *** 250 ppm); conditions: 100 = 100% disease control
Summary of the method: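 Preventive test: Puccinia recondita f. sp. tritici spores were inoculated one day after run-off spraying of wheat seedlings with test suspension (acetone/water 50/50, 250 ppm PEG400). After 24 h in saturated air and 6 days in a growth chamber, both at 20° C, control was scored 0–100 versus untreated plants.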

[2] = tested on: Blumeria graminis f. sp. tritici (the causal agent of wheat powdery mildew); experiment: Test E: preventive spray on wheat seedlings, visual disease rating (100 = 100% control; * 50 ppm, ** 10 ppm, *** 250 ppm); conditions: 100 = 100% disease control; for pest or weed control at 250 ppm / Test E disease control rating: 250 ppm test suspension
Description: (§1) General protocol for preparing test suspensions for Tests A-E: the test compounds were first dissolved in acetone in an amount equal to 3% of the final volume and then suspended at the desired concentration (in ppm) in acetone and purified water (50/50 mix by volume) containing 250 ppm of the surfactant […] (polyhydric alcohol esters). The resulting test suspensions were then used in Tests A-E.
The test suspension was sprayed to the point of run-off on wheat seedlings. The following day the seedlings were inoculated with a spore dust of Blumeria graminis f. sp. tritici, (also known as Erysiphe graminis f. sp. tritici, the causal agent of wheat powdery mildew) and incubated in a growth chamber at 20° C. for 8 days, after which time visual disease ratings were made.
(§2) Results for Tests A-E are given in Table A. In the Table, a rating of 100 indicates 100% disease control and a rating of 0 indicates no disease control (relative to the controls). An asterisk “*” or a double asterisk “**” or a triple asterisk “***” next to the rating value indicates a 50 ppm, 10 ppm and 250 ppm test suspension was used, respectively. A dash (-) indicates the compound was not tested.

[3] = tested on: Zymoseptoria tritici (the causal agent of wheat leaf blotch); experiment: Test D: preventive spray on wheat seedlings, disease rating (100 = 100% control; * 50 ppm, ** 10 ppm, *** 250 ppm); conditions: 100 = 100% disease control; for pest or weed control at 250 ppm / Test D disease control rating: 250 ppm test suspension
Description: as §1
The test solution was sprayed to the point of run-off on wheat seedlings. The following day the seedlings were inoculated with a spore suspension of Zymoseptoria tritici (the causal agent of wheat leaf blotch) and incubated in a saturated atmosphere at 24° C. for 48 h, and then moved to a growth chamber at 20° C. for 17 days, after which time disease ratings were made.
as §2

[4] = tested on: Uncinula necator (the causal agent of grape powdery mildew); experiment: Test C: preventive spray on grape seedlings, disease rating (100 = 100% control; * 50 ppm, ** 10 ppm, *** 250 ppm); conditions: 100 = 100% disease control
Description: as §1
The test solution was sprayed to the point of run-off on grape seedlings. The following day the seedlings were inoculated with a spore suspension of Uncinula necator (the causal agent of grape powdery mildew) and incubated in a growth chamber at 20° C. for 12 days, after which time disease ratings were made.
as §2

[5] = tested on: Phakopsora pachyrhizi (the causal agent of Asian soybean rust); experiment: Test F: Compound 32 or 64 alone and in mixtures on soybean seedlings, observed (Obsd) and Colby expected (Exp) disease control; conditions: Phakopsora pachyrhizi; for pest or weed control at 0.303 ppm: Compound 64 0.303 ppm alone; for pest or weed control at 0.489 ppm: Compound 64 0.489 ppm alone
Description: The general protocol for preparing test compositions for Test F was as follows: Compound 32, Compound 64, azoxystrobin, benzovindiflupyr, bixafen, chlorothalonil, cyproconazole, epoxiconazole, fenpropidin, fenpropimorph, fluindapyr, flutriafol, fluxapyroxad, metominostrobin, picoxystrobin, prothioconazole, pydiflumetofen, pyraclostrobin, tebuconazole and trifloxystrobin were obtained as unformulated, technical-grade materials. Copper hydroxide and mancozeb was obtained as a formulated product marketed under the trademarks KOCIDE 3000 and MANZATE, respectively. Unformulated materials were first dissolved in acetone and then suspended at the desired concentration (in ppm) in acetone and purified water (50/50 mix by volume) containing 250 ppm of the surfactant Trem® 014 (polyhydric alcohol esters). Formulated materials were dispersed in sufficient water to give the desired concentration, and neither organic solvent nor surfactant was added to the suspension. The resulting test mixtures were then used in Test F. The tests were run on four individual plants and the results reported as the mean average of the four plants.
The presence of a synergistic effect between two active ingredients was established with the aid of the Colby equation (see Colby, S. R. “Calculating Synergistic and Antagonistic Responses of Herbicide Combinations”, Weeds, (1967), 15, 20-22):
Using the method of Colby, the presence of a synergistic interaction between two active ingredients is established by first calculating the predicted activity, p, of the mixture based on activities of the two components applied alone. If p is lower than the experimentally established effect, synergism has occurred. In the equation above, A is the fungicidal activity in percentage control of one component applied alone at rate x. The B term is the fungicidal activity in percentage control of the second component applied at rate y. The equation estimates p, the expected fungicidal activity of the mixture of A at rate x with B at rate y if their effects are strictly additive and no interaction has occurred.
The test mixture was sprayed to the point of run-off on soybean seedlings. The following day the seedlings were inoculated with a spore suspension of Phakopsora pachyrhizi (the causal agent of Asian soybean rust) and incubated in a saturated atmosphere at 22° C. for 24 h and then moved to a growth chamber at 22° C. for 8 days, after which time visual disease ratings were made.
Results for Test F are given in Tables B-1 through I-1 for Compound 32 and Tables B-2 through I-2 for Compound 64. Each table corresponds to a set of evaluations performed together at the same time. In each table, a rating of 100 indicates 100% disease control and a rating of 0 indicates no disease control (relative to the controls). Columns labeled “Obsd” indicate the average of results observed from test run on four individual plants. Columns labeled “Exp” indicate the expected value for each treatment mixture using the Colby equation.

[6] = tested on: Phakopsora pachyrhizi (the causal agent of Asian soybean rust); experiment: Test A: preventive spray on soybean seedlings, visual disease rating (100 = 100% control; * 50 ppm, ** 10 ppm, *** 250 ppm); conditions: 100 = 100% disease control
Summary of the method: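 Preventive test: one day after spraying compound (acetone/water suspension, 250 ppm PEG400), seedlings received rust spore inoculum, 24 h in saturated air then 8 days in growth chamber, both at 22 °C. Disease control scored visually, 100 = complete, 0 = none, relative to untreated controls.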

[7] = Puccinia recondita, 50 ppm test suspension, 0 = no control
[8] = Erysiphe necator, 50 ppm test suspension, 0 = no control
[9] = Blumeria graminis, wheat seedlings
[10] = Zymoseptoria tritici, wheat seedlings
[11] = 50 ppm test suspension, 0 = no control
[12] = 250 ppm test suspension, 0 = no control
[13] = Puccinia recondita, 10 ppm test suspension, wheat seedlings
[14] = Erysiphe necator, 250 ppm test suspension, grape seedlings
[15] = Puccinia recondita, 10 ppm test suspension, 0 = no control

SMILES: CCOC(=O)c1cnn(COc2ccc(O/C=C(\OCC)C(F)(F)F)cc2)c1 [Compound 364, ethyl 1-[[4-[[(1Z)-2-ethoxy-3,3,3-trifluoro-1-propen-1-yl]oxy]phenoxy]methyl]-1H-pyrazole-4-carboxylate]
- pest or weed control at 50 ppm [1, 7]: 0%
- pest or weed control at 50 ppm ([2]; Blumeria graminis, 50 ppm test suspension, 0 = no control): 56%
- pest or weed control at 50 ppm ([3]; Zymoseptoria tritici, 50 ppm test suspension, 0 = no control): 0%
- pest or weed control at 50 ppm [4, 8]: 100%

SMILES: CCOC(=O)c1cnn(Cc2ccc(O/C=C(\OCC)C(F)(F)F)cc2)c1 [Compound 64, ethyl 1-[[4-[[(1Z)-2-ethoxy-3,3,3-trifluoro-1-propen-1-yl]oxy]phenyl]methyl]-1H-pyrazole-4-carboxylate]
- pest or weed control at 250 ppm ([1]; Puccinia recondita, 250 ppm test suspension, wheat seedlings): 99%
- pest or weed control at 250 ppm [2, 9]: 99%
- pest or weed control at 0.303 ppm ([5]; Table B-2): 53%
- pest or weed control at 0.303 ppm ([5]; Table C-2): 34%
- pest or weed control at 0.303 ppm ([5]; Table D-2): 49%
- pest or weed control at 0.303 ppm ([5]; Table E-2): 78%
- pest or weed control at 0.303 ppm ([5]; Table F-2): 37%
- pest or weed control at 0.303 ppm ([5]; Table G-2): 52%
- pest or weed control at 0.303 ppm ([5]; Table H-2): 50%
- pest or weed control at 0.303 ppm ([5]; Table I-2): 50%
- pest or weed control at 0.489 ppm ([5]; Table B-2): 68%
- pest or weed control at 0.489 ppm ([5]; Table C-2): 63%
- pest or weed control at 0.489 ppm ([5]; Table D-2): 63%
- pest or weed control at 0.489 ppm ([5]; Table E-2): 77%
- pest or weed control at 0.489 ppm ([5]; Table F-2): 68%
- pest or weed control at 0.489 ppm ([5]; Table G-2): 50%
- pest or weed control at 0.489 ppm ([5]; Table H-2): 70%
- pest or weed control at 0.489 ppm ([5]; Table I-2): 81%
- pest or weed control at 250 ppm [3, 10]: 73%

SMILES: CCO/C(=C\Oc1cccc(Cn2cc(C(=O)NCc3ncccn3)cn2)c1)C(F)(F)F [compound 402]
- Test E disease control rating ([2]; 0 = no control): 0*** %
- Test A disease control rating [6, 11]: 97%
- Test D disease control rating ([3]; 0 = no control): 5*** %
- Test C disease control rating [4, 12]: 48*** %

SMILES: CCOC(=O)c1cnn(Cc2ccc(OCC3(C(F)(F)F)OCCO3)s2)c1 [compound 273]
- pest or weed control at 50 ppm [1, 7]: 0%
- pest or weed control at 250 ppm ([2]; Blumeria graminis, 0 = no control): 65%
- pest or weed control at 250 ppm ([3]; Zymoseptoria tritici, 0 = no control): 20%
- pest or weed control at 250 ppm ([4]; Erysiphe necator, 250 ppm test suspension, 0 = no control): 49%

SMILES: CCCCOC(=O)c1cnn(Cc2ccc(O/C=C(\OCC)C(F)(F)F)cc2)c1 [Compound 218, butyl 1-[[4-[[(1Z)-2-ethoxy-3,3,3-trifluoro-1-propen-1-yl]oxy]phenyl]methyl]-1H-pyrazole-4-carboxylate]
- pest or weed control at 10 ppm [1, 13]: 0%
- pest or weed control at 250 ppm [2, 9]: 90%
- pest or weed control at 250 ppm [3, 10]: 53%
- pest or weed control at 250 ppm [4, 14]: 75%

SMILES: COC(COc1ccc(Cn2cc(Br)cn2)cc1)(O[Si](C)(C)C)C(F)(F)F (centres unmarked) [compound 395]
- pest or weed control at 50 ppm [1, 7]: 100%
- pest or weed control at 50 ppm ([6]; Phakopsora pachyrhizi, 50 ppm test suspension, 0 = no control): 100%
- pest or weed control at 50 ppm [4, 8]: 100%

SMILES: CCOC(=O)c1cnn(Cc2cccc(O/C=C(\OCC)C(F)(F)F)c2)c1 [Compound 265, ethyl 1-[[3-[[(1Z)-2-ethoxy-3,3,3-trifluoro-1-propen-1-yl]oxy]phenyl]methyl]-1H-pyrazole-4-carboxylate]
- pest or weed control at 50 ppm [1, 7]: 0%
- pest or weed control at 50 ppm [4, 8]: 98%

SMILES: O=C(COC(=O)c1cnn(Cc2ccc(OCC3(C(F)(F)F)OCCO3)cc2)c1)c1ccccc1 [compound 170]
- Test B disease control rating ([1]; 10 ppm test suspension, wheat seedlings): 0%
- Test A disease control rating ([6]; 10 ppm test suspension, soybean seedlings): 100%
- Test C disease control rating ([4]; 50 ppm test suspension, grape seedlings): 100* %

SMILES: CCO/C(=C\Oc1ccc(Cn2cc(C(=O)NCC(F)F)cn2)cc1)C(F)(F)F [compound 436]
- Test B disease control rating [1, 11]: 0%
- Test E disease control rating ([2]; 0 = no control): 0*** %
- Test A disease control rating [6, 11]: 99%
- Test C disease control rating [4, 12]: 48*** %

SMILES: CCOC(=O)c1cnn(COc2ccc(O/C=C(\OCC)C(F)(F)F)c(F)c2)c1 [compound 454]
- pest or weed control at 10 ppm [1, 15]: 0%
- pest or weed control at 10 ppm ([6]; Phakopsora pachyrhizi, 10 ppm test suspension, 0 = no control): 100%
- pest or weed control at 10 ppm ([4]; Erysiphe necator, 10 ppm test suspension, 0 = no control): 100%

SMILES: CCOC(=O)c1cnn(Cc2ccc(OCC(O)(O)C(F)(F)F)c(F)c2F)c1 [Compound 431]
- Test E disease control rating ([2]; 0 = no control): 96%
- Test D disease control rating ([3]; 0 = no control): 93%
- Test C disease control rating [4, 12]: 36%

SMILES: CCOC(=O)c1cnn(Cc2ccc(OCC3(C(F)(F)F)OCCO3)c(F)c2)c1 [Compound 263, ethyl 1-[[3-fluoro-4-[[2-(trifluoromethyl)-1,3-dioxolan-2-yl]methoxy]phenyl]methyl]-1H-pyrazole-4-carboxylate]
- pest or weed control at 10 ppm [1, 15]: 0%
- pest or weed control at 50 ppm [4, 8]: 100%

SMILES: CCOC(=O)c1cnn(Cc2cccc(O/C=C(\OCC)C(F)(F)F)c2F)c1 [compound 301]
- Test B disease control rating [1, 11]: 0%
- Test A disease control rating [6, 11]: 100%
- Test C disease control rating [4, 11]: 100* %

SMILES: CCO/C(=C\Oc1ccc(Cn2cc(C(=O)OCCCCl)cn2)cc1)C(F)(F)F [Compound 221, 3-chloropropyl 1-[[4-[[(1Z)-2-ethoxy-3,3,3-trifluoro-1-propen-1-yl]oxy]phenyl]methyl]-1H-pyrazole-4-carboxylate]
- pest or weed control at 10 ppm [1, 13]: 0%
- pest or weed control at 250 ppm [2, 9]: 95%
- pest or weed control at 250 ppm [3, 10]: 10%
- pest or weed control at 250 ppm [4, 14]: 41%
